This assay relates to GBM8 human glioblastoma cells. Put plainly: GBM8 viability assay (Cell Titer Glo). It is filed as cell-based. The note with it: 72 h, luminescence. The procedure: Cell culture medium was prepared from a NSA proliferation kit (Neurocult) and NeuroCult supplements (Stemcell Tech Cat. #05751) and treated with 20 μL of 10 μg/mL rh EGF, 10 μL of 10 μg/mL rh bFGF and 10 μL of 0.2% Heparin. In this medium, human glioblastoma cells were cultured in ultra-low attachment tissue culture flasks until 1×10^6 cells ml was achieved (GBM4 and GBM8 are distinct neurosphere cell cultures derived from these human patient tissues). GBM4 and GBM8 cells were dissociated and 10 mL of media containing 4000 human glioblastoma cells per 90 μL were transferred to an ultra-low binding 96-well plate and incubated at 37° C. overnight. On the following day, 10 μL of a 1% DMSO solution of test compound in assay medium was added to wells containing the cell suspension and the mixture incubated at 37° C. for 3 days. At this time, the plate was removed from the incubator and allowed to reach room temperature. After about 30 minutes, 50 μL of Cell Titer Glo solution was added to each well and the plate shaken for 1 minute at low speed. After 10 minutes luminescence was recorded using a Tecan Safire2 reader.
Reduction in luminescence compared to DMSO only control wells was used to determine the percentage inhibition of cell growth. IC50s were calculated using the % inhibition of luminescence for serial dilutions of compounds fitted to a 4-parameter fit within the Prism (San Diego) curve fitting program. Tables 1 (compounds 3-188) and 2 (compounds 190-212) show the GBM4 IC50 and GBM8 IC50 for compounds described herein.

Bounds are passed on as bounds.

`CN(C)CCCNc1cc(C2CC2)nc(NC(=O)Nc2ccc(OC(F)(F)F)cc2)n1` [Compound 209, 1-(4-cyclopropyl-6-((3-(dimethylamino)propyl)amino)-pyrimidin-2-yl)-3-(4-(trifluoromethoxy)phenyl)urea] returned an IC50 (Table 2, 3 days incubation) of 500 to 5000 nM.
As for `Cc1cc(NCCO)nc(NC(=O)Nc2ccc3ccccc3c2)n1` [Compound 8], the concentration for half-maximal inhibition (IC50) (Table 1, 3 days incubation) is under 500 nM.
The same measure, in the same setting: under `CCNc1cc(C)nc(NC(=O)Nc2ccc(Oc3ccccc3)cc2)n1` [Compound 134, 1-(4-(ethylamino)-6-methylpyrimidin-2-yl)-3-(4-phenoxyphenyl)urea] stands under 500 nM.
The same measure, in the same setting: under `Cc1cc(NCCNS(C)(=O)=O)nc(NC(=O)Nc2ccc3cnccc3c2)n1` [Compound 75, N-(2-((2-(3-(isoquinolin-6-yl)ureido)-6-methylpyrimidin-4-yl)amino)ethyl)methanesulfonamide] stands under 500 nM; under `Cc1cc(NO)nc(NC(=O)Nc2ccc3ccccc3c2)n1` [Compound 45, 1-(4-(hydroxyamino)-6-methylpyrimidin-2-yl)-3-(naphthalen-2-yl)urea], under 500 nM.
Same read-out and setting: under `Cc1cc(NCCCN(C)C)nc(NC(=O)Nc2ccc(OC(F)(F)F)c(Cl)c2)n1` [Compound 149, 1-(3-chloro-4-(trifluoromethoxy)phenyl)-3-(4-((3-(dimethylamino)propyl)amino)-6-methylpyrimidin-2-yl)urea] stands under 500 nM; under `Cc1cc(NCCCN)nc(NC(=O)Nc2ccc3ccncc3c2)n1` [Compound 117, 1-(4-((3-aminopropyl)amino)-6-methylpyrimidin-2-yl)-3-(isoquinolin-7-yl)urea], 500 to 5000 nM; under `Cc1cc(NCCCN(C)C)nc(NC(=O)Nc2cccc(-c3ccccc3)c2)n1` [Compound 131, 1-([1,1′-biphenyl]-3-yl)-3-(4-((3-(dimethylamino)propyl)amino)-6-methylpyrimidin-2-yl)urea], 500 to 5000 nM.
For `Cc1cc(NCCNS(C)(=O)=O)nc(NC(=O)Nc2ccc(OC(C)C)cc2)n1` [Compound 139, N-(2-((2-(3-(4-isopropoxyphenyl)ureido)-6-methylpyrimidin-4-yl)amino)ethyl)methanesulfonamide], under “Table 1, 3 days incubation”, the concentration for half-maximal inhibition (IC50) was under 500 nM.
Same read-out and setting: under `Cc1cc(NO)nc(NC(=O)Nc2ccc(OC(F)(F)F)cc2)n1` [Compound 147, 1-(4-(hydroxyamino)-6-methylpyrimidin-2-yl)-3-(4-(trifluoromethoxy)phenyl)urea] stands under 500 nM; under `Cc1cc(NCCN)nc(NC(=O)Nc2ccc(OC(F)(F)F)c(Cl)c2)n1` [Compound 150, 1-(4-((2-aminoethyl)amino)-6-methylpyrimidin-2-yl)-3-(3-chloro-4-(trifluoromethoxy)phenyl)urea], under 500 nM.
Regarding `Cc1cc(NCCCN)nc(NC(=O)Nc2ccc3cnccc3c2)n1` [Compound 53, 1-(4-((3-aminopropyl)amino)-6-methylpyrimidin-2-yl)-3-(isoquinolin-6-yl)urea], under “Table 1, 3 days incubation”, the IC50 was in the range of 500 to 5000 nM.
For the compound `O=C(Nc1ccc(OC(F)(F)F)cc1)Nc1nc(NO)cc(C2CC2)n1` [Compound 212, 1-(4-cyclopropyl-6-(hydroxyamino)pyrimidin-2-yl)-3-(4-(trifluoromethoxy)phenyl)urea], the IC50 (Table 2, 3 days incubation) lay within 500 to 5000 nM.
`Cc1cc(NCCN)nc(NC(=O)Nc2ccc3occc3c2)n1` [Compound 82, 1-(4-((2-aminoethyl)amino)-6-methylpyrimidin-2-yl)-3-(benzofuran-5-yl)urea] registered an IC50 (Table 1, 3 days incubation) of under 500 nM.
On the same count and under the same terms, under `Cc1cc(NCCCN(C)C)nc(NC(=O)Nc2ccc3cnccc3c2)n1` [Compound 50, 1-(4-((3-(dimethylamino)propyl)amino)-6-methylpyrimidin-2-yl)-3-(isoquinolin-6-yl)urea] stands under 500 nM; under `Cc1cc(NCCN)nc(NC(=O)Nc2cc3ccccc3cn2)n1` [Compound 90, 1-(4-((2-aminoethyl)amino)-6-methylpyrimidin-2-yl)-3-(isoquinolin-3-yl)urea], 500 to 5000 nM.
Same read-out and setting: under `Cc1cc(NCCN)nc(NC(=O)Nc2ccc3ncccc3c2)n1` [Compound 107, 1-(4-((2-aminoethyl)amino)-6-methylpyrimidin-2-yl)-3-(quinolin-6-yl)urea] stands 500 to 5000 nM; under `Cc1cc(NCCCN)nc(NC(=O)Nc2ccc(C(=O)c3ccccc3)cc2)n1` [Compound 155, 1-(4-((3-aminopropyl)amino)-6-methylpyrimidin-2-yl)-3-(4-benzoylphenyl)urea], under 500 nM.
As for `CNC(=O)CCNc1cc(C)nc(NC(=O)Nc2ccc3cnccc3c2)n1` [Compound 77, 3-((2-(3-(isoquinolin-6-yl)ureido)-6-methylpyrimidin-4-yl)amino)-N-methylpropanamide], for the setting “Table 1, 3 days incubation”, the IC50 was under 500 nM.
In turn, `Cc1cc(NCC2CCCN(C)C2)nc(NC(=O)Nc2ccc3ccccc3c2)n1` (stereo not shown) [Compound 11] gave an IC50 (Table 1, 3 days incubation) of 500 to 5000 nM.
`CNc1cc(C)nc(NC(=O)Nc2ccc3ccccc3c2)n1` [Compound 20]: the IC50 (Table 1, 3 days incubation) was under 500 nM.
On the same count and under the same terms, under `Cc1cc(NCCN(C)C)nc(NC(=O)Nc2ccc3ccccc3n2)n1` [Compound 97, 1-(4-((2-(dimethylamino)ethyl)amino)-6-methylpyrimidin-2-yl)-3-(quinolin-2-yl)urea] stands 5000 to 30000 nM; under `CC(C)c1cc(NO)nc(NC(=O)Nc2ccc3ccccc3c2)n1` [Compound 187, 1-(4-(hydroxyamino)-6-isopropylpyrimidin-2-yl)-3-(naphthalen-2-yl)urea], 500 to 5000 nM.
Turning to `CC(=O)NCCNc1cc(C)nc(NC(=O)Nc2ccc3ncccc3c2)n1` [Compound 110, N-(2-((6-methyl-2-(3-(quinolin-6-yl)ureido)pyrimidin-4-yl)amino)ethyl)acetamide], under “Table 1, 3 days incubation”, the IC50 was 500 to 5000 nM.
Take `Cc1cc(NCCc2ncc[nH]2)nc(NC(=O)Nc2ccc3ccccc3c2)n1` [Compound 22, 1-(4-((2-(1H-imidazol-2-yl)ethyl)amino)-6-methylpyrimidin-2-yl)-3-(naphthalen-2-yl)urea]: under “Table 1, 3 days incubation”, the IC50 was under 500 nM.
The compound `CC(C)c1cc(NCCCN(C)C)nc(NC(=O)Nc2ccc(OC(F)(F)F)cc2)n1` [Compound 194, 1-(4-((3-(dimethylamino)propyl)amino)-6-isopropylpyrimidin-2-yl)-3-(4-(trifluoromethoxy)phenyl)urea] registered an IC50 (Table 2, 3 days incubation) of 500 to 5000 nM.
In the case of `CNCCCCNc1cc(C)nc(NC(=O)Nc2ccc3ccccc3c2)n1` [Compound 33, 1-(4-methyl-6-((4-(methylamino)butyl)amino)pyrimidin-2-yl)-3-(naphthalen-2-yl)urea], under “Table 1, 3 days incubation”, the IC50 is under 500 nM.
Same read-out and setting: under `Cc1cc(NCC(=O)N(C)C)nc(NC(=O)Nc2ccc3cnccc3c2)n1` [Compound 59] stands 500 to 5000 nM.
On the same count and under the same terms, under `Cc1cc(NCCNS(C)(=O)=O)nc(NC(=O)Nc2cc3ccccc3cn2)n1` [Compound 93, N-(2-((2-(3-(isoquinolin-3-yl)ureido)-6-methylpyrimidin-4-yl)amino)ethyl)methanesulfonamide] stands 500 to 5000 nM; under `Cc1cc(NCCO)nc(NC(=O)Nc2ccc3cnccc3c2)n1` [Compound 60, 1-(4-((2-hydroxyethyl)amino)-6-methylpyrimidin-2-yl)-3-(isoquinolin-6-yl)urea], under 500 nM.
Same read-out and setting: under `Cc1cc(NCCOCCO)nc(NC(=O)Nc2ccc3ccccc3c2)n1` [Compound 13] stands under 500 nM; under `Cc1cc(NCCNC(=O)C(F)(F)F)nc(NC(=O)Nc2ccc3ccccc3c2)n1` [Compound 38, 2,2,2-trifluoro-N-(2-((6-methyl-2-(3-(naphthalen-2-yl)ureido)pyrimidin-4-yl)amino)ethyl)acetamide], 500 to 5000 nM.
For the setting “Table 1, 3 days incubation”, `CC(=O)NCCNc1cc(C)nc(NC(=O)Nc2ccc(OC(C)C)cc2)n1` [Compound 140, N-(2-((2-(3-(4-isopropoxyphenyl)ureido)-6-methylpyrimidin-4-yl)amino)ethyl)acetamide] came in with an IC50 of under 500 nM.
Where the note is “Table 2, 3 days incubation”, `CNCCCNc1cc(C(C)C)nc(NC(=O)Nc2ccc3ccccc3c2)n1` [Compound 192, 1-(4-isopropyl-6-((3-(methylamino)propyl)amino)pyrimidin-2-yl)-3-(naphthalen-2-yl)urea] gave an IC50 of 500 to 5000 nM.
For `Cc1cc(NCCCN)nc(NC(=O)Nc2cc3ccccc3cn2)n1` [Compound 91, 1-(4-((3-aminopropyl)amino)-6-methylpyrimidin-2-yl)-3-(isoquinolin-3-yl)urea], for the setting “Table 1, 3 days incubation”, the IC50 lay within 500 to 5000 nM.
On the same count and under the same terms, under `Cc1cc(NCCc2ccccn2)nc(NC(=O)Nc2ccc3ccccc3c2)n1` [Compound 15] stands 5000 to 30000 nM.
Regarding `CC(C)c1cc(N)nc(NC(=O)Nc2ccc3ccccc3c2)n1` [Compound 190, 1-(4-amino-6-isopropylpyrimidin-2-yl)-3-(naphthalen-2-yl)urea], the IC50 (Table 2, 3 days incubation) lay in the range of 5000 to 30000 nM.
`Cc1cc(NCCCN)nc(NC(=O)Nc2ccc3occc3c2)n1` [Compound 83, 1-(4-((3-aminopropyl)amino)-6-methylpyrimidin-2-yl)-3-(benzofuran-5-yl)urea] gave an IC50 (Table 1, 3 days incubation) of under 500 nM.
Still for that read-out and setting: under `Cc1cc(NO)nc(NC(=O)Nc2ccc3cnccc3c2)n1` [Compound 62, 1-(4-(hydroxyamino)-6-methylpyrimidin-2-yl)-3-(isoquinolin-6-yl)urea] stands under 500 nM.
Same read-out and setting: as for `CN(C)CCCNc1nc(NC(=O)Nc2ccc(Cl)c(Cl)c2)ncc1F` [Compound 168, 1-(3,4-dichlorophenyl)-3-(4-((3-(dimethylamino)propyl)amino)-5-fluoropyrimidin-2-yl)urea], the figure is 500 to 5000 nM.

These data come from patent US12145913B2, “Inhibition of Olig2 activity” (Curtana Pharmaceuticals, Inc., priority 2016, dated 2024).
